Reference: patent publication US20180179129A1, “SOLVENT COMPOSITIONS FOR USE AS HEXANE REPLACEMENTS” (TBF ENVIRONMENTAL TECHNOLOGY INC., priority 2015, published 2018)

What was measured:
[1] = Performance test: solvency of G1652 resin; assay type: physicochemical; details: scale 1 = completely insoluble, 10 = completely soluble, >=6 soluble; 0.5 mL, ~20 mg resin, 22° C., 1 hour
Description: (§1) Several compounds were combined in different initial blends (Table 1). Standardized performance tests on solvency of a variety of resins, including (but not limited to) Kraton resins G1652, KR1164, KR1171, and G1726, Sukorez resin SU100S, and paraffin wax.
(§2) The performance tests on resins were performed as follows: The addition of 0.5 mL of each formulation to an individual screw-cap vial containing a stirbar and resin (G1652: ˜20 mg, SU100S: ˜40 mg, G1726: ˜25 mg, KR1164: ˜20 mg, KR1171, ˜20 mg, paraffin wax: ˜55 mg). The vials were tightly capped and solutions were stirred on a stirplate (400 rpm) at 22° C. for 1 hour. The stirbar was removed and solvency was observed, photos of the results were taken (Formulations 1-27, G1652 and SU100S). The odor of the blends was also tested empirically. Evaporation rates were calculated based on weight averages (% by volume) of individual components.

[2] = Performance test: solvency of SU100S resin; assay type: physicochemical; details: scale 1 = completely insoluble, 10 = completely soluble, >=6 soluble; 0.5 mL, ~40 mg resin, 22° C., 1 hour
Description: as §1, §2

[3] = cited from earlier work

FC(F)(F)c1ccc(Cl)cc1 [Formulation 26, para-chlorobenzotrifluoride]
G1652 solvency [1]: 10
SU100S solvency [2]: 10

CCCCCC [Formulation 27, hexanes]
G1652 solvency [1]: 10
SU100S solvency [2]: 10

COC(C)=O [Methyl acetate]
stability ([3]; in the presence of strong aqueous bases or aqueous acids): not stable
solubility in water ([3]; room temperature): 25%
